Data on two molecules can be found in publication PMC11676204.

Data set [1] concerns the target ACE enzyme (Homo sapiens, UniProt P12821). The data set can be described thus: ACE inhibition assay (absorbance at 340 nm).
Description: The enzyme solution and substrate were prepared under standard protocols, and the assay was performed in 96-well plates wherein the ACE enzyme and inhibitor were mixed with the substrate. The reaction was incubated at 37 °C for 30 min, after which the ACE activity was determined by measuring the absorbance at 340 nm that correlated with the product formation and enzyme activity [36]. The IC₅₀ values that specify inhibition at 50% concentration were generated from concentration-inhibition data. The percentage inhibition was calculated using the formula:Percentage Inhibition (%) = (A − C)/ (A − B) ∗ 100 where A is the absorbance of the negative control (substrate and enzyme), B is the absorbance of the blank (buffer only) and C is the absorbance of the sample (enzyme, substrate and sample). For the positive control, captopril was used instead of a sample and was considered as C.
Data set [2] has as its system methyl predenisolone-induced hypertensive rats. The data set can be described thus: Antihypertensive activity, non-invasive tail-cuff method. Type of data set: in vivo, rat. On the set-up: Systolic BP / Diastolic BP: unit not given here. Particulars: for Diastolic BP / Heart Rate / MABP / Systolic BP: methyl predenisolone 20 mg/kg/week rats, n = 4, mean ± S.E.M. Here is the method: After recording the initial BP of rats, the animals were divided into seven groups of four animals each. One group was chosen as the control group. The remaining groups were given a subcutaneous injection of methyl-predenisolone acetate (20 mg/kg/week) for one week, as described by Ekerbicer, N et al.. […] In total, 28 animals were evenly divided into 7 groups of 4 animals each to attain maximum balance of subjects across experimental conditions. […] Animals in group II (hypertensive control) were injected methylprednisolone acetate (20 mg/kg/week) intraperitoneally for hypertension induction, creating a baseline model of plateau hypertension. Animals in Group III were administered with 20 mg/kg/week intraperitoneal injection of methylprednisolone treated with captopril at an oral dosage of 5 mg/kg/day. For Group IV, the basal dosage of methylprednisolone was provided along with a higher dosage of captopril (10 mg/kg/day by oral route). […] The inclusion of multiple treatment groups with varying doses provided insights into the relative efficacy and dose-response relationship of the interventions. Randomization was done by block randomization, ensuring without bias these allocations of animals into groups. Before intervention, baseline characteristics such as weight, age, or sex of animals were determined, and t-test or ANOVA was used to affirm that no significant difference between groups existed. The SYRCLE’s Risk of Bias tool analyzed potential biases across various domains like selection, performance, and detection bias; each domain was rated according to low, high, or unclear risk.
The CODA Non-Invasive Blood Pressure Recorder (Kent Scientific Corporation, Torrington, CT, USA) was used to measure mean arterial blood pressure in conscious rats using the tail-cuff method. With the rat’s tail protruding, the restrainer was inserted in the BP instrument. […] The tail was gently pressed against a transducer membrane that was linked to the digital BP display panel. After that, the device was turned on and stabilized until a consistent pulse rate was seen. […] In this investigation, albino rats (body weight 150–200 g) were employed. Rats were divided into four groups, each with four individuals. […] After 1 h, the mean arterial blood pressure was measured.
Statistical analysis was carried out by one-way analysis of variance followed by Dunnet’s multiple comparison test using GraphPad InStat 3 (Graph Pad Software Inc., San Diego, CA, USA). All values were expressed as mean ± standard error of the mean (SEM). All groups were compared with hypertensive control animals. p-value of <0.01 was statistically significant.

Data set [3] in a line: Pharmacokinetics after oral administration (plasma, UV spectrophotometry at 340 nm). Type of data set: in vivo. The conditions noted are these: rat; for Cmax / MRT / AUC(0-t): plasma; for AUC(0-t): read-out: AUC 0–7 (converted). The procedure: In accordance with the ICH guidelines Q2 (R1) (2005) standard calibration curves, regression equations, and values for LOD and LOQ for each compound were validated with UV spectrophotometric method. Various parameters, such as linearity, precision, limit of detection, and limit of quantification, were considered for the method validation. […] The rats were orally administered (10, 20, and 40 mg/Kg body weight, n = 3) using a 20 G gavage needle. The animals were given a standard diet 4 h after the dosing, and blood samples were collected (approximately 400 μL) from each animal and placed into heparinized tubes before the dosing and at 0, 30, 60, 120, 180, 240, 300, 360, and 420 min after the dosing. Plasma (100 μL) was separated by centrifuging blood samples at 3600 rpm for 10 min at room temperature, followed by immediate processing for the analyses.
Plasma concentration by the compound was measured by UV spectrophotometry at 340 nm and validated per ICH requirements. […] The precision studies gave % RSD less than 2 for intra-day and inter-day variations, and recovery studies were between 97–99%, indicating the reliability of method.
The plasma concentration–time graph obtained after oral administrations were subjected to non-compartmental analyses based on the statistical moment theory, as shown in Figure 6 and Table 4. Pharmacokinetic parameters were calculated using WinNorlin 5.2 (Certara; available at www.certara.com, accessed on 20 November 2024). The parameters obtained include maximum plasma concentration (Cmax), the time to reach Cmax (Tmax), the elimination half-life (t1/2), the area under the plasma concentration–time curve from time zero to infinity (AUC0–∞), the area under the plasma concentration–time curve from time zero to 420 min AUC0–7, the mean residence time (MRT), and clearance (CL).

In general, IC50 refers to the concentration needed to halve the response being measured. One may read the inhibition as the drop in the measured response relative to a control, in per cent. By Cmax is commonly meant the highest concentration seen after dosing. As usually defined, the MRT is the average time that molecules of a dose stay in the body.

Molecules are shown by their SMILES. Like-named read-outs stand apart in the source and are kept apart here.

Chain of ACE enzyme (P12821 30-1306, species assumed): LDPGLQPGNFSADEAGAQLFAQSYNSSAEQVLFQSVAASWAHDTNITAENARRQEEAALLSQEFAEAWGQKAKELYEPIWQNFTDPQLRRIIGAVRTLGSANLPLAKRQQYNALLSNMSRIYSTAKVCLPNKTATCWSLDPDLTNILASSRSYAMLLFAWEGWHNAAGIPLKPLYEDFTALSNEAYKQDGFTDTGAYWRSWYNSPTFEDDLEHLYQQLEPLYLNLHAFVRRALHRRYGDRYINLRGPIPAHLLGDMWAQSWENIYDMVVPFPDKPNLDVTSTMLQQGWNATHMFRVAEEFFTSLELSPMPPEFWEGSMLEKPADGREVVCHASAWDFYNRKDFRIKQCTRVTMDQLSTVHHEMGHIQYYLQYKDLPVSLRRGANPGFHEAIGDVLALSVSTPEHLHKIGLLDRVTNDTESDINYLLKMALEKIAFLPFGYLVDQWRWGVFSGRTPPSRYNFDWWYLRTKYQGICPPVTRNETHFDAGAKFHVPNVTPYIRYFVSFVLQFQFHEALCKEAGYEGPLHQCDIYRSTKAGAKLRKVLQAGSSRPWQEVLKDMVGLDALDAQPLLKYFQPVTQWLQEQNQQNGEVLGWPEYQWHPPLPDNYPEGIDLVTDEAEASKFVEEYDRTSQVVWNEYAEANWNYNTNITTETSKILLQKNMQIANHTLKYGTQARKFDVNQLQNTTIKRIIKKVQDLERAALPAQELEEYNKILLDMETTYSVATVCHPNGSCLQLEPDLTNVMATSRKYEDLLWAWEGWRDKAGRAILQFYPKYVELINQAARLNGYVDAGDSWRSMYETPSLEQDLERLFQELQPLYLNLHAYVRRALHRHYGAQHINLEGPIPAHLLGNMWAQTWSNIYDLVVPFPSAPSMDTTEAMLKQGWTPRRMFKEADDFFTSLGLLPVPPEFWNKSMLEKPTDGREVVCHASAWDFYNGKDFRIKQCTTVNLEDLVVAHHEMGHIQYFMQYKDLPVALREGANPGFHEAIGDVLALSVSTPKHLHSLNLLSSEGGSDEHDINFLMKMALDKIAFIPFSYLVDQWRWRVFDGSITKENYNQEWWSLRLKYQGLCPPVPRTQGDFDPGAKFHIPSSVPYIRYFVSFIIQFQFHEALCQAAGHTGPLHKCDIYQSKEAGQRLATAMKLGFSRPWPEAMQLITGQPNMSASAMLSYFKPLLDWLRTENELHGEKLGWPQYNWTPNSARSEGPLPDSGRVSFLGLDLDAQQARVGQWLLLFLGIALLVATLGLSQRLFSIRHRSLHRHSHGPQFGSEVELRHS

On to `COc1cc2oc(-c3ccc(O)cc3)c(OC3OC(CO)C(O)C(O)C3O)c(=O)c2c(O)c1OC` (stereo not shown), for which the IC50 in data set [1] is around 20 µM. The inhibition at 100 µM in data set [1] (read-out: maximum ACE inhibition) was around 82%. In addition, in data set [2] (10 mg/kg), the “Diastolic BP” value was determined as 126.99 ± 6.80, the “Heart Rate” value was 443.99 ± 15.12 Beats/min, the MABP stood at 144.4 ± 4.59 mmHg and the “Systolic BP” value turned out to be 179.19 ± 7.18. Besides, in data set [2] (20 mg/kg oral), the “Diastolic BP” value is recorded as 110.88 ± 10.28, the “Heart Rate” value worked out at 430.66 ± 10.5 Beats/min, the MABP is 120.1 ± 5.1 mmHg and the “Systolic BP” value is given as 138.44 ± 7.09. Besides, in data set [2] (40 mg/kg oral), the “Diastolic BP” value came out at 85.76 ± 7.4, the “Heart Rate” value turned out to be 408.99 ± 9.0 Beats/min, the MABP was found to be 95.53 ± 7.5 mmHg and the “Systolic BP” value was determined as 114.99 ± 5.8. Besides, the “blood pressure in treated rats” value in data set [2] (10, 20 and 40 mg/kg) is “dose-dependent decrease in blood pressure”. Also, in data set [2] (methyl predenisolone-induced hypertensive rats, p < 0.01), the “systolic and diastolic blood pressures compared with vehicle” value is listed as “significantly lower”. Further, in data set [3] (10 mg/kg b.w. oral), the peak level (Cmax) was 100 µg/mL, the MRT was 3.05 h, the AUC(0-t) was 438 µg·h/mL and the “Elimination Rate” value worked out at 0.0001236 h⁻¹. For the same molecule, in data set [3] (20 mg/kg b.w. oral), the peak level (Cmax) was 119 µg/mL, the mean residence time (MRT) was 2.98 h, the AUC(0-t) was 499 µg·h/mL and the “Elimination Rate” value stood at 0.0006846 h⁻¹. Further, in data set [3] (40 mg/kg b.w. oral), the Cmax was 125 µg/mL, the MRT was 3.04 h, the AUC(0-t) was 539 µg·h/mL and the “Elimination Rate” value worked out at 0.0002917 h⁻¹. The bioavailability entry in data set [3] (oral) is on record as “moderate”.

As for `C[C@H](CS)C(=O)N1CCC[C@H]1C(=O)O` [Captopril, captopril, reference compound], in data set [2] (5 mg/kg), the “Diastolic BP” value amounted to 117.8 ± 11.19, the “Heart Rate” value turned out to be 507.11 ± 6.13 Beats/min, the MABP amounted to 126.19 ± 11.10 mmHg and the “Systolic BP” value came to 142.99 ± 10.88. In data set [2] (10 mg/kg), the “Diastolic BP” value stood at 98.66 ± 10.18, the “Heart Rate” value worked out at 421.78 ± 12.0 Beats/min, the MABP is given as 112.6 ± 5.17 mmHg and the “Systolic BP” value is on record as 136.77 ± 6.13.
